Laboratory results from PMC2928817 (PLoS Pathogens, 2010).

What was measured:
[1] = target: NA of A/Vietnam/HN32060/2009 (VN32060r; NA H274Y) (Influenza A virus, UniProt C3W5S3, H275Y); assay type: biochemical, 2009 pandemic influenza A (H1N1) virus
[2] = target: NA of A/Osaka/180/2009 (O180r; NA H274Y) (Influenza A virus, UniProt C3W5S3, H275Y); assay type: biochemical, 2009 pandemic influenza A (H1N1) virus

Q: With `CC(=O)N[C@H]1[C@H]([C@H](O)[C@H](O)CO)OC(C(=O)O)=C[C@@H]1N=C(N)N` [Zanamivir] as the compound, how does the “IC50 value of VN32060r compared with VN9727s” value [1] read?
A: comparable

Q: What about the “IC50 value of O180r compared with O164s” value [2] of the same compound?
A: comparable
